Experimental data taken from patent US20160221974A1, “SODIUM CHANNEL MODULATORS FOR THE TREATMENT OF PAIN AND DIABETES” (CHROMOCELL CORPORATION, priority 2013, published 2016).

Experiments:
hNaV1.7 = biological target: T1, hNaV1.7 (Homo sapiens, UniProt Q15858); experiment: FDSS Membrane Potential In-Vitro Assay; format: cell-based; details: stimulation with veratridine and scorpion venom, read-out: NaV1.7 IC50
T1 construct: expressed in transfected cells

[1] = system: Acetic Acid Writhing Model; experiment: Writhing Model (Inflammatory Abdominal Pain), rats; format: in vivo; details: relative to vehicle control, doses of 10 to 30 mg/kg intraperitoneal route
Procedure: The Acetic Acid Writhing Model is associated with visceral pain (abdominal pain, such as stomach pain, and pain caused by, for example, bile duct congestion and kidney stones). A writhing test assesses acute peritoneovisceral pain. After acclimation of 2-3 days, a test compound, positive control or vehicle control was administered by intraperitoneal injection (i.p.) or by oral gavage 15-30 minutes prior to administration of acetic acid. The time of administration of test compound was recorded. For mice: Method A: 0.6% Acetic acid solution in saline was injected i.p. in a volume of 10 ml/kg; Method B: 1.2% Acetic acid solution in saline was injected i.p. in a volume of 5 ml/kg. For rats: 4% acetic acid in saline was injected i.p in a volume of 2 ml/kg at T=0 minutes. Each animal was placed in a clear plastic cage. At T=5 minutes, the number of writhing movements was counted over a 45 minute period. Alternatively, the writhing movements were counted over a 5-minute period and repeated every 5 minutes, starting at T=5 minutes over a 45-minute period. For each compound tested, the individual score was obtained by calculating the accumulated writhing movements for the time period studied. […]

NaV1.7 = biological target: T2, NaV1.7 (Homo sapiens, UniProt Q15858); experiment: Patchliner Electrophysiological In-Vitro Assay (NaV1.7); format: cell-based; details: Patchliner patch clamp, HEK293, holding at V1/2
T2 construct: expressed in transfected cells
How it was run: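 Automated whole-cell patch clamp at room temperature on HEK293 cells stably expressing hNav1.7 with β1 and β2 subunits. Inactivated-state Ki: cells held at their own V1/2, stepped to −120 mV for 5–10 ms, then to Vmax for 10–20 ms, repeated every 10 s; dose-dependent inhibition analysed.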

[2] = system: Partial Sciatic Nerve Ligation (PSNL) model; experiment: Partial Sciatic Nerve Ligation (PSNL) model, behavioral tests; format: in vivo, male Sprague-Dawley rats; details: 30 mg/kg intraperitoneal, measured 30-60 minutes post dose
From the text: 250-350 g male Sprague-Dawley rats from appropriate animal resources were anesthetized with 2.5% isoflurane. A hind leg was shaved, and the skin was sterilized with 0.5% iodine and 75% alcohol. All surgical instruments were sterilized before surgery and between animals. An incision (1 cm) was made at the middle of the thigh in parallel with the muscle and sciatic nerve distribution. The muscle was exposed and dissected at the joint of two muscles (biceps femoris) indicated by the light colored (white) fascia line. The sciatic nerve was just beneath the muscle and was hooked out using an 18-20 G feeding needle (90 degree curved); the sciatic nerve was flat on the feeding needle and approximately one-half the diameter of the nerve is tightly ligated with 7-0 silk suture. A response of the injured leg twitch indicates the success of ligation. After checking hemostasis, bupivicaine 0.1-0.2 ml (0.125%) was given at the incision area, the muscle and the adjacent fascia are closed with 5-0 absorbable sutures. The skin was sutured with absorbable suture and tissue glue. The control group using sham surgery animals (about 8-10 animals) underwent the same surgical procedure but with no nerve ligation. Animals were returned to their home cage after recovery from anesthesia.
The analgesic effect of the test compound was expressed as a percent recovery (% Recovery) relative to the sham control group baseline and calculated according to the formula:
% Recovery=100%−{[(sham mean−test compound mean)/(sham mean−vehicle mean)]×100%}
wherein “sham mean” refers to average score in the sham-operated group; “test compound mean” refers to average score in the PSNL-group (animals with partial sciatic nerve ligation) or diabetic group (animals treated with STZ) treated with a test compound; “vehicle mean” refers to average score in the PSNL-group or diabetic group treated with vehicle only. The above formula was used to obtain data for the following in vivo behavioral tests.
The following behavioral tests were conducted (i.e., plantar test, paw pressure test, and von Frey test) started on day 3 and thereafter once weekly following surgery or use of a diabetic inducer. […]
Rats were placed on the glass surface of a thermal testing apparatus (Model 336, IITC/Life Science Instruments, Woodland Hills, Calif.) and were allowed to acclimate for 10 min before testing on the glass surface at room temperature. […] The paw withdrawal latency was recorded by a digital timer. The thermal threshold was determined as the mean withdrawal latency from two to three consecutive trials of both hindpaws. […]
Animals were placed under clear plastic boxes above a wire mesh floor, which allowed full access to the paws. […] Mechanical paw withdrawal thresholds (PWTs) were measured with the up-down testing paradigm. […]

CYP3A4 = biological target: T3, CYP3A4 (Homo sapiens, UniProt P08684); experiment: In-Vitro Cytochrome P450 (CYP450) Inhibition Assay (Vivid CYP450); format: in vitro ADME; details: CYP3A4 enzyme complex (Vivid CYP450, Invitrogen), 6 μM test concentration
T3 construct: purchased Invitrogen
Procedure: We evaluated interaction of drug candidates with cytochrome P450 enzymes which are a major determinant of drug clearance via oxidative metabolism using a high throughput compatible, fluorescence based CYP450 screening assay (Vivid® CYP450, Invitrogen) according to manufacturer's directions.
In brief, test compounds at four different concentrations (μM—6.0, 2.0, 0.7, 0.2), a positive control (Ketoconazole) and a solvent control were incubated at room temperature in unique wells of a 96-well microtiter plate with CYP3A4 enzyme complex for 20 minutes. A pre-read fluorescence (Ex−485 nm/Em−530 nm) was measured at the start of the incubation using a Tecan Safire^2 microplate reader-monochromator to determine background fluorescence. At the end of the incubation period, enzyme substrate and co-enzyme were added and the reaction was kinetically monitored for 1 hour by measuring fluorescence every minute. Effect of test compounds on inhibition of CYP3A4 metabolism of provided substrate was determined by calculating the ratio of the effective reaction rate in presence of test compound to that in the absence of inhibitor.

T2 sequence (Q15858 whole entry): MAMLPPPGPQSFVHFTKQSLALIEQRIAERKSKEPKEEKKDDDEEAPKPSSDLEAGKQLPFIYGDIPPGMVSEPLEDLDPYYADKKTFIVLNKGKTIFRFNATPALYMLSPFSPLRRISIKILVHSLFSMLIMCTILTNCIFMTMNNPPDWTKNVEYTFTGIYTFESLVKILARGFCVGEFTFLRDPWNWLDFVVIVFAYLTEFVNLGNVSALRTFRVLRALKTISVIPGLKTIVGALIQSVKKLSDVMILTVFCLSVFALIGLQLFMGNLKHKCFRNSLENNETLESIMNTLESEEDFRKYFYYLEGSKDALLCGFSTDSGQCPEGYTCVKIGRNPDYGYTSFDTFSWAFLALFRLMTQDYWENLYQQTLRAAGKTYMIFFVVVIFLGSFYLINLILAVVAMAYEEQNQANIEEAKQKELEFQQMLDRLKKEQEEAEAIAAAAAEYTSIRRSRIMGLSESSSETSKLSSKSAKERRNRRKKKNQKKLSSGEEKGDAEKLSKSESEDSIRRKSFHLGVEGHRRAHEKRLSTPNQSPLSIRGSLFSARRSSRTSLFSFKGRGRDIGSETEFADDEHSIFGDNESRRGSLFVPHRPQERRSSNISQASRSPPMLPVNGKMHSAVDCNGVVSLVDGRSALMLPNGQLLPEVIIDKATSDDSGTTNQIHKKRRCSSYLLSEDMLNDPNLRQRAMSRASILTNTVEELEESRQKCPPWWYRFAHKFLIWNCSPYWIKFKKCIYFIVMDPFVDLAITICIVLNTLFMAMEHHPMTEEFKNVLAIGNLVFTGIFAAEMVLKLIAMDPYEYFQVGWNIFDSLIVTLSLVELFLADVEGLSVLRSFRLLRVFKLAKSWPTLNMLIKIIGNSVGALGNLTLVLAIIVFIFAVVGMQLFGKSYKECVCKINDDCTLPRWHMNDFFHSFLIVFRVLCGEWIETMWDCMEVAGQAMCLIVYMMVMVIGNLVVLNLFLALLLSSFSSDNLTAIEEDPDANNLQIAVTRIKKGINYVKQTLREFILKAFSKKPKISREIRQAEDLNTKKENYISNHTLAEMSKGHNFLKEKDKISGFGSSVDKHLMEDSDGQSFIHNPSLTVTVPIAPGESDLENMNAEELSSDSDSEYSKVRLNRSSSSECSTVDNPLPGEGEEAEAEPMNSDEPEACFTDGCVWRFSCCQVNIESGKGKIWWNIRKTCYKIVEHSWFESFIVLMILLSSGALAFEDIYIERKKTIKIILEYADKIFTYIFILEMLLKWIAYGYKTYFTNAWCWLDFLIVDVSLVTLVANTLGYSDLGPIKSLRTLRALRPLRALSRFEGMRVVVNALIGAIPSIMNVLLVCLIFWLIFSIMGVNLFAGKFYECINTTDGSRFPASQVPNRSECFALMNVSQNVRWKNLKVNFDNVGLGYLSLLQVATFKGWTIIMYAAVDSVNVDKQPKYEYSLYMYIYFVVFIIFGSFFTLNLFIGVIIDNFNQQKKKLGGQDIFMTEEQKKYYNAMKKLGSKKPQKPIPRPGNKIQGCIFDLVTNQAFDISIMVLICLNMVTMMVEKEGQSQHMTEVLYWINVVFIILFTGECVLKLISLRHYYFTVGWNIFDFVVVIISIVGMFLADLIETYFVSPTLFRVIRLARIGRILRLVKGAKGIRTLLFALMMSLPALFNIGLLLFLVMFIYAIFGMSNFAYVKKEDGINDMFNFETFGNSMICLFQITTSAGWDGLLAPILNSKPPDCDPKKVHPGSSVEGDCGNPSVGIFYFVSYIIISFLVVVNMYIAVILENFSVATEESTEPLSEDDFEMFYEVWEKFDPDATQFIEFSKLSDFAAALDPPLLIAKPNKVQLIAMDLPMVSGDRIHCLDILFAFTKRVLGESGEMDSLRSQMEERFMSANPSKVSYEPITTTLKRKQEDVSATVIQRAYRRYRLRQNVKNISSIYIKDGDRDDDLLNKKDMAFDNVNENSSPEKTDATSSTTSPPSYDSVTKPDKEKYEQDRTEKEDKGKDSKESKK
T2 sequence (Q07699 19-218 partner): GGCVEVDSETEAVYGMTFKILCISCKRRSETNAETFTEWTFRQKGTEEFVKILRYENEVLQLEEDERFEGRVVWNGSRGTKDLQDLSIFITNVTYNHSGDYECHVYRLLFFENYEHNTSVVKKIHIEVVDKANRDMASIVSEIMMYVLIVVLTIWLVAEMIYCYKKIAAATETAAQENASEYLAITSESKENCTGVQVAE
T2 sequence (O60939 30-215 partner): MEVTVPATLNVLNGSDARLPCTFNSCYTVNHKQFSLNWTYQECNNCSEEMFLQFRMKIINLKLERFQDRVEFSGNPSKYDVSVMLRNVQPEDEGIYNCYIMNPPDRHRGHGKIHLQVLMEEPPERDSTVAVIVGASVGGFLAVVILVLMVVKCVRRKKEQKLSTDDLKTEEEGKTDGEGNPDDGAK
T1 sequence (Q15858 whole entry): as the sequence (Q15858 whole entry) above
T1 sequence (Q07699 19-218 partner): as the sequence (Q07699 19-218 partner) above
T1 sequence (O60939 30-215 partner): as the sequence (O60939 30-215 partner) above
T3 sequence (P08684 2-503 limits assumed): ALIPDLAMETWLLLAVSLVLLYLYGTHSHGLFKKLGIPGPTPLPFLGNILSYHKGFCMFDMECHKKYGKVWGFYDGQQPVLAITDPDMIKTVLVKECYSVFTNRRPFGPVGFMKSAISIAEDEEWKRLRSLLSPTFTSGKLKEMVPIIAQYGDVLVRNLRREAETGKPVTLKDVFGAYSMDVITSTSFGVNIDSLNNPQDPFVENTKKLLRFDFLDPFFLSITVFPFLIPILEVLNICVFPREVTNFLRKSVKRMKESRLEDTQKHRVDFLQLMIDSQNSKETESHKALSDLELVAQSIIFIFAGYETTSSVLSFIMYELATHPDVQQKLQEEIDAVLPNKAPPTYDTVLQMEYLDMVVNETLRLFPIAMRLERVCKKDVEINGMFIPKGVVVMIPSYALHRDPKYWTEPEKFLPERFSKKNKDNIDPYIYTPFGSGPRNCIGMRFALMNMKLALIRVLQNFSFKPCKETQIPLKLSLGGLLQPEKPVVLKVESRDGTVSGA

Structure (SMILES): O=C(O)CNC(=O)c1cc(-c2cc(Cl)ccc2Oc2cc(F)c(S(=O)(=O)Nc3ncns3)cc2Cl)ccn1 [Compound 2, 2-(4-(2-(4-(N-(1,2,4-thiadiazol-5-yl)sulfamoyl)-2-chloro-5-fluorophenoxy)-5-chlorophenyl)picolinamido)acetic acid]
- IC50 (hNaV1.7): < 130 nM
- reduction in pain (writhing) [1]: 48-58%
- IC50 (NaV1.7): < 100 nM
- effect in the tactile allodynia test [2]: no significant effect
- inhibition at 1 hour, 6 µM (CYP3A4): 50 to 100%
